The test system of data set [1] is PA-1. The data set is described as follows: Antiproliferation assay (Assay 7), PA-1. It counts as cell-based. The following applies: Homo sapiens, CellTiter-Glo, 72 hours, median, read-out: Antiproli PA-1 [M] median IC50. Here is the method:
(§1) Assessment of the Anti-Proliferative Effect of Compounds in Different Cell Lines
(§2) The impact of compounds on the proliferation of different cell lines was assessed using the CellTiter-Glo® Luminescent Cell Viability reagent from Promega (G7573).
(§3) In parallel, cells were plated in a reference (day 0) plate for time zero determination.
(§4) Rim wells were excluded. The cells were incubated for 72 hours in a humidified incubator at 37° C. The day 0 plate was measured by adding 30 μL/well of CTG solution (CellTiter-Glo® Luminescent Cell Viability reagent, Promega G7573) to time zero wells in the reference plate followed by a 10 minutes incubation and luminescence reading at 0.1 ms. using the PHERAstar FS microplate reader (BMG Labtech).
(§5) After 72 hours incubation, the treated plates were measured in the same way as the day 0 plate mentioned above.

Data set [2] has as its system SK-MEL-2. In words: Antiproliferation assay (Assay 7), SK-MEL-2. It counts as cell-based. The following applies: Homo sapiens, CellTiter-Glo, 72 hours, median, read-out: Antiproli SK-MEL-2 [M] median IC50. Here is the method: as §1, §2, §3, §4, §5
Data set [3] has as its system A-431. In words: Antiproliferation assay (Assay 7), A-431. The format is cell-based. The following applies: Homo sapiens, CellTiter-Glo, 72 hours, median, read-out: Antiproli A-431 [M] median IC50. Here is the method:
as §1, §2, §3, §4, §5

Data set [4] has as its system SNU-16. In words: Antiproliferation assay (Assay 7), SNU-16. The format is cell-based. The conditions noted are these: Homo sapiens, CellTiter-Glo, 72 hours, median, read-out: Antiproli SNU-16 [M] median IC50. Here is the method: as §1, §2, §3, §4, §5
(In general: Cellular ATP, detected with luciferase, serves as a proxy for viable cell number.)

In data set [5] the test system is SUDHL5.
Procedure: Assay 6 Induction of Cytotoxicity Upon Treatment of Cells with Selected Compounds
Therefore, cytotoxicity assays were run in parallel in SUDHL5 and SUDHL10 cells.
The different cell lines were plated in culture medium (RPMI 1640 [GIBCO #22400-089] supplemented with 10% Fetal Bovine Serum) at a density of 3,300 cells in 30 μl/well in a sterile, solid black, flat bottom, polystyrene, TC-treated 384-well microplate (Corning #3571) using Multidrop Combi Reagent Dispenser. As a control, medium without cells was also added to the plate. Cells were incubated in a humidified incubator at 37° C. overnight. On the next day, the cells were treated with compounds (stock solution, 10 mM in DMSO) using the HP D300 Digital Dispenser in a concentration range of 3.3×10e-5 M (33 μM) to 5×10e-9 M (5 nM) in a single-dot curve with at least 16 dilutions and a DMSO concentration of 0.33%. Rim wells were excluded. The cells were incubated for 5 hours in a humidified incubator at 37° C. After this incubation, 30 μl of CellTiter-Glo® Luminescent Cell Viability reagent (Promega, G7573) was added to each well using the Multidrop Combi Reagent Dispenser, followed by 15 minutes incubation on a shaker at room temperature. Finally, luminescence was read at 0.1 ms, with a gain of 3000 using the PHERAstar FS microplate reader (BMG Labtech).
Data set [6] relates to SUDHL10.
Data set [7] concerns DM-S114. The data set is described as follows: Antiproliferation assay (Assay 7), DM-S114. The format is cell-based. The conditions noted are these: Homo sapiens, DMS-114, CellTiter-Glo, 72 hours, median, read-out: Antiproli DM-S114 [M] median IC50. Here is the method:
as §1, §2, §3, §4, §5

For data set [8] the following is noted: from CCOC(=O)c1[nH]c2c(-c3c(CN(CCCN4CCOCC4)S(=O)(=O)CCCCl)nn(C)c3CC)cccc2c1CCCOc1cccc2ccccc12; amine bond; NaH; DMF; 25.0 mM; 60.0 °C; 6.0 h; 2 steps.
Data set [9] deals with SUDHL10. In words: Antiproliferation assay (Assay 7), SUDHL10. The format is cell-based. The conditions noted are these: CellTiter-Glo, median, read-out: Antiproli SUDHL10 [M] (median) IC50. Here is the method: as §1, §2, §3, §4, §5

The values below come from patent US11401278B2, “Macrocyclic indole derivatives” (The Broad Institute, Inc., priority 2017, dated 2022).

Structures are written as SMILES. Structures can show the parent of a compound that is named as a salt. Where two headings read alike, the source gives them in different places.

For the compound `CCc1c2c(nn1C)C(CCC1CCOCC1)N(C)S(=O)(=O)CCCn1c(C(=O)O)c(CCCOc3cccc4cc(F)ccc34)c3ccc(Cl)c-2c31` (racemic) [Example 60, (rac)-4-chloro-3-ethyl-7-{3-[(6-fluoro-1-naphthyl)oxy]propyl}-2,14-dimethyl-15-[2-(tetrahydro-2H-pyran-4-yl)ethyl]-11,12,14,15-tetrahydro-2H,10H-pyrazolo[3′,4′:4,5][1,2,8]thiadiazacycloundecino[6,7,8-hi]indole-8-carboxylic acid 13,13-dioxide (Racemate 1)], the IC50 in data set [1] is 1.84e-06 M; in data set [2], 5.08e-06 M; in [3], 2.07e-06 M; in [4], 2.54e-06 M.

Take `CCc1c2c(nn1C)C(CCN1CCOCC1)N(C)S(=O)(=O)CCCn1c(C(=O)O)c(CCCOc3cccc4cc(F)ccc34)c3ccc(Cl)c-2c31` (racemic) [Example 73, (rac)-(4-chloro-3-ethyl-7-{3-[(6-fluoronaphthalen-1-yl)oxy]propyl}-2,14-dimethyl-15-[2-(morpholin-4-yl)ethyl]-13,13-dioxo-10,11,12,13,14,15-hexahydro-2H-13lambda^6-pyrazolo[3′,4′:4,5][1,2,8]thiadiazacycloundecino[6,7,8-hi]indole-8-carboxylic acid (Racemate 1)]: the results for the IC50 in [5] and in data set [6] were 0.02 µM and 0.019 µM, respectively.

As for `CCc1c2c(nn1C)CN(CC)S(=O)(=O)CCCn1c(C(=O)O)c(CCCOc3cccc4cc(F)ccc34)c3ccc(Cl)c-2c31` (racemic) [Example 56, (rac)-4-chloro-3,14-diethyl-7-{3-[(6-fluoro-1-naphthyl)oxy]propyl}-2-methyl-11,12,14,15-tetrahydro-2H,10H-pyrazolo[3′,4′:4,5][1,2,8]thiadiazacycloundecino[6,7,8-hi]indole-8-carboxylic acid 13,13-dioxide], the IC50 in data set [1] was determined as 7.07e-07 M; in [7] it was 5.61e-07 M; in data set [2] it was 1.14e-06 M; in data set [3] it was 1.18e-06 M; in [4] it was 1.05e-06 M.

For `CCc1c2c(nn1C)CN(CCCN1CCOCC1)S(=O)(=O)CCCn1c(C(=O)O)c(CCCOc3cccc4ccccc34)c3cccc-2c31` (racemic) [Example 15, (rac)-12-Ethyl-11-methyl-8-(3-morpholinopropyl)-1-(3-(naphthalen-1-yloxy)propyl)-4,5,6,8,9,11-hexahydropyrazolo[3′,4′:4,5][1,2,8]thiadiazacycloundecino[6,7,8-hi]indole-2-carboxylic acid 7,7-dioxide 2,2,2-trifluoroacetic acid salt], the ring closure, yield of all isomers in data set [8] amounted to 48.2%.

As to `Cc1c2c(nn1C)CN(C)S(=O)(=O)CCCn1c(C(=O)O)c(CCCOc3cccc4ccccc34)c3ccc(Cl)c-2c31` (racemic) [Example 4, (rac)-4-Chloro-2,3,14-trimethyl-7-{3-[(naphthalen-1-yl)oxy]propyl}-13,13-dioxo-10,11,12,13,14,15-hexahydro-2H-13λ^6-pyrazolo[3′,4′:4,5][1,2,8]thiadiazacycloundecino-[6,7,8-hi]indole-8-carboxylic acid], in [9] (Homo sapiens, SU-DHL10, 72 h), the IC50 came to 5.6e-07 M.

Turning to `Cc1c2c(nn1C)CN(C)S(=O)(=O)CCCn1c(C(=O)O)c(CCCOc3cccc4ccccc34)c3ccc(Cl)c-2c31` (single isomer, unassigned; enantiomer 1) [Example 5, 4-Chloro-2,3,14-trimethyl-7-{3-[(naphthalen-1-yl)oxy]propyl}-13,13-dioxo-10,11,12,13,14,15-hexahydro-2H-13λ^6-pyrazolo[3′,4′:4,5][1,2,8]thiadiazacycloundecino[6,7,8-hi]indole-8-carboxylic acid-N-ethylethanamine salt (Enantiomer 1)], in data set [9] (72 hours), the IC50 came out at 4.4e-07 M.

As a reminder, the IC50 is the midpoint of a concentration-inhibition curve.
